Assay results reported in patent US7258872B1, “Chromone enteric release formulation” (Thornton & Ross Limited, priority 1998, dated 2007).

What was measured:
B lymphocytes = conditions: cited from earlier work
[1] = cited from earlier work
[2] = Solubility of sodium cromoglycate in water; format: physicochemical
Text: Water may be used without additional binder or surfactant.

freely soluble up to [2]: up to 5% | soluble with difficulty up to [2]: up to 10%
SMILES: O=C(O)c1cc(=O)c2c(OCC(O)COc3cccc4oc(C(=O)O)cc(=O)c34)cccc2o1 [sodium cromoglycate]
effect on IgE synthesis by B lymphocytes (B lymphocytes): reduce the ability of IgE-producing cells, the B lymphocytes, to synthesise IgE antibody | solubility in acid ([1]; acid medium / gastric fluid): insoluble in an acid medium | lipid solubility ([1]; model assumption): lipid insoluble | water solubility ([1]; model assumption): water soluble
